Data: US9511058B2, “Methods for using carboxamide, sulfonamide and amine compounds” (Rigel Pharmaceuticals, Inc., priority 2010, dated 2016)

molecular target: AMPK; assay: AMPK activation, enzyme-linked immunosorbent assay; format: biochemical; settings: compounds of Table 1 (Table 6)
Experimental: Compounds of Table 1 were assayed for their ability to activate AMPK using an enzyme-linked immunosorbent assay.
Compounds of Table 2 were assayed for their ability to activate AMPK using an enzyme-linked immunosorbent assay.
Compounds of Table 3 were assayed for their ability to activate AMPK using an enzyme-linked immunosorbent assay.
Compounds of Table 4 were assayed for their ability to activate AMPK using an enzyme-linked immunosorbent assay.
Compounds of Table 5 were assayed for their ability to activate AMPK using an enzyme-linked immunosorbent assay.

Compound | EC50 [nM]
N#Cc1ccc(CN2CCC(NC(=O)c3sc4cc(OC5CCN(c6ccc(C(F)(F)F)cc6)CC5)ccc4c3Cl)CC2)cc1 [1-154, 3-chloro-N-(1-(4-cyanobenzyl)piperidin-4-yl)-6-(1-(4-(trifluoromethyl)phenyl)piperidin-4-yloxy)benzo[b]thiophene-2-carboxamide] | < 100
O=C(NC1CCN(Cc2c[nH]cn2)CC1)c1ccc(OC2CCN(c3ccc(C(F)(F)F)cc3)CC2)cn1 [1-48, N-(1-((1H-imidazol-4-yl)methyl)piperidin-4-yl)-5-(1-(4-(trifluoromethyl)phenyl)piperidin-4-yloxy)picolinamide] | 1000 to 5000
CC(C)(C)OC(=O)N1CCC(NC(=O)c2cc3cc(OC4CCN(Cc5ccc(C#N)cc5)CC4)ccc3o2)CC1 [1-113, tert-butyl 4-(5-(1-(4-cyanobenzyl)piperidin-4-yloxy)benzofuran-2-carboxamido)piperidine-1-carboxylate] | 100 to 500
O=C(NC1CCN(Cc2ccncc2)CC1)c1cc2cc(OC3CCN(c4ccc(OC(F)(F)F)cc4)CC3)ccc2s1 [1-137, N-(1-(pyridin-4-ylmethyl)piperidin-4-yl)-5-(1-(4-(trifluoromethoxy)phenyl)piperidin-4-yloxy)benzo[b]thiophene-2-carboxamide] | < 100
O=C(N[C@H]1CCNC1)c1ccc(OC2CCN(c3ccc(C(F)(F)F)cc3)CC2)cn1 [1-27, (S)-N-(pyrrolidin-3-yl)-5-(1-(4-(trifluoromethyl)phenyl)piperidin-4-yloxy)picolinamide] | > 10000
CC(C)(C)OC(=O)N1CC[C@H](NC(=O)c2ccc(OC3CCN(c4ccc(C(F)(F)F)cc4)CC3)cn2)C1 [1-26, (S)-tert-butyl 3-(5-(1-(4-(trifluoromethyl)phenyl)piperidin-4-yloxy)picolinamido)pyrrolidine-1-carboxylate] | 100 to 500
Cc1c(C(=O)NC2CCN(Cc3ccccc3C#N)CC2)oc2cc(OC3CCN(c4ccc(C(F)(F)F)cc4)CC3)ccc12 [1-67, N-(1-(2-cyanobenzyl)piperidin-4-yl)-3-methyl-6-(1-(4-(trifluoromethyl)phenyl)piperidin-4-yloxy)benzofuran-2-carboxamide] | < 100
O=C(NC1CCN(Cc2ccncc2)CC1)c1ccnc(OC2CCN(c3ccc(C(F)(F)F)cc3)CC2)c1 [1-20, N-(1-(pyridin-4-ylmethyl)piperidin-4-yl)-2-(1-(4-(trifluoromethyl)phenyl)piperidin-4-yloxy)isonicotinamide] | 500 to 1000
Cc1c(C(=O)NC2CCN(C(=O)OC(C)(C)C)CC2)oc2cc(OC3CCN(c4ccc(C(F)(F)F)cc4)CC3)ccc12 [1-61, tert-butyl 4-(3-methyl-6-(1-(4-(trifluoromethyl)phenyl)piperidin-4-yloxy)benzofuran-2-carboxamido)piperidine-1-carboxylate] | 100 to 500
O=C(NC1CCN(S(=O)(=O)c2cccnc2)CC1)c1cc2ccc(OC3CCN(c4ccc(OC(F)(F)F)cc4)CC3)cc2o1 [1-108, N-(1-(pyridin-3-ylsulfonyl)piperidin-4-yl)-6-(1-(4-(trifluoromethoxy)phenyl)piperidin-4-yloxy)benzofuran-2-carboxamide] | 100 to 500
O=C(N[C@H]1CCN(Cc2ccc(F)cc2)C1)c1ccc(OC2CCN(c3ccc(C(F)(F)F)cc3)CC2)cn1 [1-32, (S)-N-(1-(4-fluorobenzyl)pyrrolidin-3-yl)-5-(1-(4-(trifluoromethyl)phenyl)piperidin-4-yloxy)picolinamide] | 100 to 500
N#Cc1ccc(CN2CC(NC(=O)c3ccc(OC4CCN(c5ccc(C(F)(F)F)cc5)CC4)cn3)C2)cc1 [1-41, N-(1-(4-cyanobenzyl)azetidin-3-yl)-5-(1-(4 (trifluoromethyl)phenyl)piperidin-4-yloxy)picolinamide] | 100 to 500
O=C(NC1CCN(Cc2ccncc2)CC1)c1cc2ccc(OC3CCN(c4ccc(OC(F)(F)F)cc4)CC3)cc2o1 [1-88, N-(1-(pyridin-4-ylmethyl)piperidin-4-yl)-6-(1-(4-(trifluoromethoxy)phenyl)piperidin-4-yloxy)benzofuran-2-carboxamide] | < 100
N#Cc1ccc(CN2CCC(NC(=O)c3cc(OC4CCN(c5ccc(C(F)(F)F)cc5)CC4)ccn3)CC2)cc1 [1-28, N-(1-(4-cyanobenzyl)piperidin-4-yl)-4-(1-(4-(trifluoromethyl)phenyl)piperidin-4-yloxy)picolinamide] | < 100
O=C(N[C@@H]1CCNC1)c1ccc(OC2CCN(c3ccc(C(F)(F)F)cc3)CC2)cn1 [1-24, (R)-N-(pyrrolidin-3-yl)-5-(1-(4-(trifluoromethyl)phenyl)piperidin-4-yloxy)picolinamide] | 5000 to 10000
O=S(=O)(NC1CCNCC1)c1ccc(OC2CCN(c3ccc(C(F)(F)F)cc3)CC2)nc1 [1-55, N-(piperidin-4-yl)-6-(1-(4-(trifluoromethyl)phenyl)piperidin-4-yloxy)pyridine-3-sulfonamide] | 1000 to 5000
N#Cc1ccc(CN2CCC(NC(=O)c3ccc(OC4CCN(c5ccc(C#N)cc5)CC4)cn3)CC2)cc1 [1-2, N-(1-(4-cyanobenzyl)piperidin-4-yl)-5-(1-(4-cyanophenyl)piperidin-4-yloxy)picolinamide] | < 100
O=C(NC1CCN(C(=O)c2ccncc2)CC1)c1cc2cc(OC3CCN(c4ccc(C(F)(F)F)cc4)CC3)ccc2o1 [1-115, N-(1-isonicotinoylpiperidin-4-yl)-5-(1-(4-(trifluoromethyl)phenyl)piperidin-4-yloxy)benzofuran-2-carboxamide] | < 100
O=C(NC1CCN(Cc2ccc(F)cc2)CC1)c1cc2ccc(OC3CCN(c4ccc(C(F)(F)F)cc4)CC3)cc2o1 [1-91, N-(1-(4-fluorobenzyl)piperidin-4-yl)-6-(1-(4-(trifluoromethyl)phenyl)piperidin-4-yloxy)benzofuran-2-carboxamide] | > 10000
CN(C(=O)c1cc2cc(OC3CCN(c4ccc(C(F)(F)F)cc4)CC3)ccc2o1)C1CCN(Cc2ccncc2)CC1 [1-104, N-methyl-N-(1-(pyridin-4-ylmethyl)piperidin-4-yl)-5-(1-(4-(trifluoromethyl)phenyl)piperidin-4-yloxy)benzofuran-2-carboxamide] | 100 to 500

same assay, conditions: compounds of Table 2 (Table 7)

Compound | EC50 [nM]
O=C(NC1CCN(C(=O)c2cccnc2)CC1)c1ccc2[nH]c3c(c2c1)CN(c1ccc(F)cc1)CC3 [2-40, 2-(4-fluorophenyl)-N-(1-nicotinoylpiperidin-4-yl)-2,3,4,5-tetrahydro-1H-pyrido [4,3-b]indole-8-carboxamide] | > 100000
O=C(NC1CCN(Cc2ccc(C(F)(F)F)cc2)CC1)c1ccc2[nH]c3c(c2c1)CN(Cc1ccc(C(F)(F)F)cc1)CC3 [2-13, N-(1-(4-trifluoromethyl-benzyl)piperidin-4-yl)-2-(4-(trifluoro-methyl)benzyl)-2,3,4,5-tetrahydro-1H-pyrido[4,3-b]indole-8-carboxamide] | < 500

same assay, conditions: compounds of Table 3 (Table 8)

Compound | EC50 [nM]
N#Cc1ccc(CN2CCC(NC(=O)c3ccc4c(c3)CN(Cc3ccc(F)cc3)CC4)CC2)cc1 [3-34, N-(1-(4-cyanobenzyl)piperidin-4-yl)-2-(4-fluorobenzyl)-1,2,3,4-tetrahydroisoquinoline-7-carboxamide] | < 100
N#Cc1ccc(CN2CCC(NC(=O)c3ccc(C(=O)NC4CCN(Cc5ccccc5)CC4)cc3)CC2)cc1 [3-33, N^1-(1-benzylpiperidin-4-yl)-N^4-(1-(4-cyanobenzyl)piperidin-4-yl)terephthalamide] | 10000 to 100000
N#Cc1ccc(CN2CCC(NC(=O)c3ccc(C(=O)NC4CCN(c5ccccc5)CC4)cc3)CC2)cc1 [3-32, N^1-(1-(4-cyanobenzyl)piperidin-4-yl)-N^4-(1-phenylpiperidin-4-yl)terephthalamide] | 10000 to 100000
N#Cc1ccc(CN2CCC(NC(=O)c3cnc(OC4CCN(c5ccc(C#N)cc5)CC4)s3)CC2)cc1 [3-24, N-(1-(4-cyanobenzyl)piperidin-4-yl)-2-(1-(4-cyanophenyl)piperidin-4-yloxy)thiazole-5-carboxamide] | < 100

same assay, conditions: compounds of Table 5 (Table 10)

Compound | EC50 [nM]
CC(C)(C)OC(=O)NCCCNC(=O)c1ccc(OC2CCN(Cc3ccc(C(F)(F)F)cc3)CC2)cc1 [5-95, tert-butyl 3-(4-(1-(4-(trifluoromethyl)benzyl)piperidin-4-yloxy)benzamido)propylcarbamate] | < 1000
O=C(NC1CCN(Cc2ccccc2)CC1)c1ccc(OC2CCN(c3ccco3)CC2)c(Cl)c1 [5-11, N-(1-benzylpiperidin-4-yl)-3-chloro-4-(1-(furan-2-yl)piperidin-4-yloxy)benzamide] | 1000 to 10000
N#Cc1ccc(N2CCC(Oc3ccc(C(=O)NC4CCN(Cc5ccccc5)CC4)c(Cl)c3)CC2)cc1 [5-49, N-(1-benzylpiperidin-4-yl)-2-chloro-4-(1-(4-cyanophenyl)piperidin-4-yloxy)benzamide] | < 1000
O=C(NC1CCN(Cc2ccccc2)CC1)c1ccc(OC2CCN(Cc3ccc(OC(F)(F)F)cc3)CC2)cc1 [5-63, N-(1-benzylpiperidin-4-yl)-4-(1-(4-(trifluoromethoxy)benzyl)piperidin-4-yloxy)benzamide] | < 1000
O=C(NC1CCN(Cc2ccccc2)CC1)c1ccc(OC2CCN(c3cccs3)CC2)c(Cl)c1 [5-10, N-(1-benzylpiperidin-4-yl)-3-chloro-4-(1-(thiophen-2-yl)piperidin-4-yloxy)benzamide] | 1000 to 10000
O=C(NC1CCN(Cc2ccccc2)CC1)c1cc(Cl)c(OC2CCN(Cc3cccc(C(F)(F)F)c3)CC2)c(Cl)c1 [5-62, N-(1-benzylpiperidin-4-yl)-3,5-dichloro-4-(1-(3-(trifluoromethyl)benzyl)piperidin-4-yloxy)benzamide] | < 1000
O=C(NC1CCN(Cc2ccncc2)CC1)c1ccc(OC2CCN(c3ccc(C(F)(F)F)cc3)CC2)c(F)c1 [5-28, 3-fluoro-N-(1-(pyridin-4-ylmethyl)piperidin-4-yl)-4-(1-(4-(trifluoromethyl)phenyl)piperidin-4-yloxy)benzamide] | < 1000
COc1cc(C(=O)NC2CCN(Cc3ccccc3)CC2)ccc1OC1CCN(Cc2ccccc2)CC1 [5-2, N-(1-benzylpiperidin-4-yl)-4-(1-benzylpiperidin-4-yloxy)-3-methoxybenzamide] | < 1000
